This is an account of results in patent publication US20040110680A1, “Beta-alethine use in cell culture and therapy” (Regents of the University of New Mexico, priority 1990, published 2004).

The conditions of data set [1]: The Merck Index, 9th edition (#221); cited from earlier work.
Data set [2] has as its system IMR-90 human fetal lung fibroblasts. Description: Maximum population doubling level (PDL) of IMR-90 fibroblasts, delay of cellular senescence. The class given is cell-based. An excerpt: This cell line is available from the American Type Culture Collection (ATCC, Bethesda, Md., USA) and is used as a standard for in vitro cellular senescence studies. Cellular senescence is loosely defined as those cellular process(es) that together result in the cell's inability to replenish itself in culture. This model represents aging processes in vivo, and cell lines developed from humans of different ages have PDL's in vitro which are inversely related to the chronological age of the donor. The IMR-90 cells depicted in FIG. 1 were grown under ideal conditions in McCoy's 5A synthetic medium supplemented with HEPES buffer at 10 mM; 100 units penicillin G/ml and 100 μg streptomycin/ml at standard concentrations; new born calf serum (NBCS) at 20% (V/V); and L-glutamine at 2 mM. The treated cell cultures were augmented with different concentrations of β-alethine (as indicated) dissolved in phosphate-buffered saline (PBS)—-always in a standard volume of 30 microliters per culture. […] The cells were then washed twice with the complete medium and counted in a double Neubauer hemacytometer; 2 million cells were aliquoted into a fresh tissue culture flask (T-75, polystyrene by LUX, Flow General, McClean, Md., USA) with 20 ml of fresh complete medium. […]

The test system of data set [3] is human peripheral blood leukocytes (HPBLs). Description: Non-antigen-specific immunoglobulin synthesis and secretion by HPBLs, protein-A facilitated plaque assay (Ig-PFC). The format is cell-based. An excerpt: FIG. 2 illustrates data from a series of experiments designed to assess the effect of β-alethine on non-antigen-specific immunoglobulin synthesis and secretion in vitro by human peripheral blood leukocytes (HPBLs), generally characterized as a peripheral lymphoid organ primarily populated by medium-sized, mature lymphocytes. In these experiments, blood was taken from healthy male humans; the blood was then defibrinated on glass beads, and the leukocytes separated by centrifugation (buffy coat technique). Residual red blood cells were lysed with a brief treatment with 0.85% ammonium chloride. The leukocytes were counted and dispensed into 24 well tissue culture trays (LUX, Flow General, McClean, Md., USA) in 1 ml of RPMI 1640 basal medium supplemented with penicillin, streptomycin, 10% fetal calf serum, and L-glutamine. β-alethine was added to test cultures at various concentrations in 30 microliter doses. The cells were harvested as indicated in FIG. 2 at various times between 72 and 144 hours of culture and tested for antibody production using a conventional protein-A facilitated plaque assay (A-PFC or Ig-PFC). […] In addition, aliquots of cells were also tested for proliferation status by treating them with 0.5 μCi of tritiated thymidine (6-9 Ci/mole) followed by assessing the level of incorporation of radioactivity into newly synthesized DNA. […]

Data set [4] relates to NS-1 myeloma cells. The class given is in vivo. The following applies: single mouse, 100 μg/kg; tumor cells remained in skeletal muscle, subcutaneous tissue, a mammary gland. The protocol: NS-1 myeloma cells (ATCC TIB 18, P3/NS1/1-Ag4-1) were employed as inoculant; these cells have proven to be about 90% effective in establishing myelomas in mice according to the exemplified procedure, and the untreated myelomas are substantially fatal within about two weeks.
The cells were grown for several passages (preferably one week) in a sterile environment consisting of RPMI 1640 (Whittaker M. A. Bioproducts, Walkersville, Md., USA) containing 10% fetal calf serum (Hyclone Laboratories, Logan, Utah, USA), 2 mM L-glutamine, 5,000 units of penicillin, and 5 mg streptomycin in 75 cm^2 polystyrene tissue-culture flasks (Corning Glassworks, Corning, N.Y., USA) in a humidified chamber at 37° C. and under 6% CO2. To assure NS-1 propagation in vivo it is essential to remove DMSO (the cryostatic agent dimethyl sulfoxide) through several medium changes and dilutions; this also serves to maintain the cells in log-phases growth. […]
Wasting of the tumor and not the mouse proper was confirmed by weighing the debulked carcass. […] It was thus tentatively determined that the bone demineralized due to rapid growth of the tumor resulting in the fracture, a process which requires calcium and phosphate, and which would also explain the subsequent rapid extraskeletal deposition of calcium phosphate as the tumor was resorbed.

Another data set relates to Murine hepatocytes. Description: Adaptation of culture-resistant hepatocytes to culture (colony count). The class given is cell-based, BALBc/J mice. An excerpt: FIG. 4 illustrates data from a single experiment designed to study the use of β-alethine for adapting cells to culture. The culture-resistant cells employed (hepatocytes) were taken from in vivo to in vitro growth. Murine hepatocytes were chosen owing to their being especially difficult to adapt to culture. […] In this experiment a single liver lobe from one of the BALBc/J mice was excised, pressed through a 90 mesh stainless steel screen, washed, and placed in T-25 tissue culture flasks (10 for LUX, Flow General, McClean, Md., USA). All cultures were maintained in 10 ml of the same medium as described in Example III (RPMI-1640 plus fetal calf serum plus pen/strep plus L-glutamine) and the test cultures exposed to various concentrations of β-alethine as indicated in FIG. 4. […] It was possible to obtain some viable colonies from the control cultures, but only if 10- to 20-fold higher initial cell concentrations were used; therefore the β-alethine was between 500- and 1000-fold more efficient in adapting murine hepatocytes to in vitro culture than control, i.e., saline-treated medium. […] The effect is again dose-dependent, as illustrated.

The test system of data set [5] is NS-1 myeloma cells. Description: NS-1 myeloma in inoculated mice, early intervention. The format is in vivo. An excerpt: To assure NS-1 propagation in vivo it is essential to remove DMSO (the cryostatic agent dimethyl sulfoxide) through several medium changes and dilutions; this also serves to maintain the cells in log-phases growth. […] The mice were maintained with Wayne Rodent Blox (Wayne Research Animal Diets, Chicago, Ill., USA) ad lib. and tap water.
The inoculated mice were compared to a) untreated controls and b) to carrier-injected (saline-injected) controls.

Setting [6] is: i.p., Monday, Wednesday, Friday from day 2 through day 47.

For `NCCC(=O)NCCS` [β-aletheine], the “stability in air and aqueous solutions” value in data set [1] was “unstable in air and aqueous solutions”.
Turning to `NCCC(=O)NCCSSCCNC(=O)CCN` [β-alethine, N,N′-bis-(β-alanyl-2-aminoethyl) Disulfide], in data set [2] (absolute terms, factor of 2 raised to the power 55), the “increase in cell number (biomass)” value is given as 3.6×10^16 fold. Further, the “life expectancy of the cells” value in data set [2] (augmentation of growth versus untreated cells) is on record as “doubling of the life expectancy”. Moreover, in data set [3] (HPBLs), the “optimal concentration for immunoglobulin production” value was “about 5 nanograms/ml culture”. Also, the “immunoglobulin production relative to untreated control” value in data set [3] (dose-dependent, 72 to 144 hours of culture) is “approximately 60 times the untreated control levels”. The “tumor cells in remaining organs (histology)” value with NS-1 myeloma cells [4] was “none of the remaining organs contained tumor cells”. In addition, the “colonies of hepatocytes observed” value in the data set with Murine hepatocytes (10 ng/ml, no colonies in the control culture) was “approximately 50 colonies”. Moreover, the “stability of treated cells in culture” value in the data set with Murine hepatocytes (long-term culture, in contrast to control cells) was “stable in culture”. For the same compound, the deaths result in the data set with NS-1 myeloma cells [5] (10 pg/kg mouse) is reported as “two deaths”. For the same compound, the “normal weight gain of the mice” value in the data set on NS-1 myeloma cells [5] (10 μg/kg) was “not significantly”. Besides, the “persistence of the palpable tumor before regression” value in the data set on NS-1 myeloma cells [5] (10 μg/kg, one mouse) was 20 days. For the same compound, the “normal weight gain of the mice” value in the data set with NS-1 myeloma cells [5] (100 μg/kg) is “slightly inhibited”. In addition, the “fraction of animals that ultimately contracted tumor” value in the data set on NS-1 myeloma cells [5] (at about 10 pg/kg or 1 ng/kg, without treatment 75% euthanized or died) is listed as “one-third to two-thirds”. For the same compound, the “mice developing a palpable tumor” value in the data set with NS-1 myeloma cells [5] (at about 10 μg/kg or 100 μg/kg) was “only one mouse developed a palpable tumor”. Further, in the data set with NS-1 myeloma cells [5] (setting [6]), the “therapeutic minimal threshold (lower end of effective range) for preventing onset of NS-1 myeloma” value is reported as 10 pg/kg mouse and the “upper end of effective concentration range for preventing onset of NS-1 myeloma” value came to 100 μg/kg mouse. Further, the “morphology of tumors developing under therapy” value in the data set with NS-1 myeloma cells [5] (untreated controls typically developed ascites) is reported as “with few exceptions solid masses”.
